From US9808448B2, “Pharmaceutical compounds and use of same in cancer and tauopathies” (THE REGENTS OF THE UNIVERSITY OF MICHIGAN, priority 2013, dated 2017)
Entries after “also recorded” stand apart in the source; their conditions may differ. Where two headings read alike, the source gives them in different places.

Columns and labels:
[1] = target: prokaryotic Hsp70 (DnaK) binding to denatured luciferase (Escherichia coli, UniProt P0A6Y8); test: Luciferase binding assay; type: biochemical; conditions: 50 μM
Experimental: Next, the effect of chaperone functions by binding of YM-08 to Hsp70 was investigated. […] This profile is shared with other allosteric Hsp70 inhibitors. As another test of chaperone function, the effects of the compounds on the binding of Hsp70 to a misfolded protein were measured. In previous work, MKT-077 stabilized the interaction between prokaryotic Hsp70 (DnaK) and denatured luciferase. Briefly, this assay involves immobilizing unfolded luciferase in microtiter plates and measuring binding to DnaK. […] To explore whether YM-08 might also enhance binding of Hsp70 to a more physiologically relevant substrate, binding of tau to immobilized human Hsc70 was measured.
Binding of prokaryotic Hsp70 (DnaK) to denatured luciferase was measured as previously described, in e.g., Miyata, et al., J. Biomol. Screen, 15:1211-1219 (2010). Briefly, firefly luciferase (0.2 mg/mL) was proteolyzed with trypsin and immobilized in 96-well microtiter plates. After washing, the binding of luciferase to DnaK (500 nM) was measured using an anti-DnaK antibody and HRP secondary antibody. A similar strategy was used to monitor binding of human Hsc70 to tau, as previously described in Thompson, et al., ACS Chem. Biol., 7:1677-1686 (2012).

human Hsc70 (HSPA8) = target: T1, human Hsc70 (HSPA8) (Homo sapiens, UniProt P11142); test: ELISA competitive binding assay (biotinylated MKT-077 displacement)
T1 construct: made in house
Experimental: Binding of MKT-077 analogs to immobilized Hsp70 was evaluated using a competitive ELISA. In this established assay, a biotinylated version of MKT-077 is bound to immobilized human Hsc70 (HSPA8) and potential competitors are tested for their ability to block the interaction.
A sample of Hsc70 (50 μL; 0.06 mg/mL) was immobilized in clear flat-bottom 96-well plate in MES buffer (50 mM 2-(N-morpholino)ethanesulfonic acid, pH 5.2) at 37° C. overnight. After discarding the excess protein solution, each well was washed three times with 150 μL TBS-T buffer (25 mM Tris, 140 mM NaCl, 2.7 mM KCl, 0.01% Tween-20, pH 7.4). Then, 1 μL of compound (1% DMSO) was diluted into 24 μL of binding buffer (100 mM Tris, 20 mM KCl, 6 mM MgCl2, 0.01% Triton-X100) and incubated at room temperature for 30 min. Biotin labeled MKT-077 (final concentration 1 μM; 25 μL) was subsequently added into each well and the mixture was incubated at room temperature for another 3 hrs. The wells were washed with 150 μL TBS-T buffer three times prior to blocking with 100 μL 3% bovine serum albumin (BSA) in TBS-T buffer for 5 min at room temperature. After the removal of the BSA solution, 50 μL of HRP-streptavidin (Pierce Biotechnology, 1:50000 TBS-T dilution) solution was added and the plates were incubated at room temperature for 1 hr. The HRP-streptavidin solution was removed and wells were washed three times with 150 μL TBS-T. […] substrate (Cell Signaling Technology 100 μL) was added into each well and incubated at room temperature until a visible blue color was shown in wells (about 20 min). 1 M HCl stop solution was then added into each well to yield a yellow solution and the absorbance at 450 nm was recorded on SpectraMax M5 (Molecular Devices).

MDA-MB-231 cells = test: Combination cell viability by MTT, MDA-MB-231; type: cell-based; conditions: for combination index CI50 / combination index CI75 / combination index CI90 / combination index CI95: 24 hrs
Experimental: To further test if an Hsp70 inhibitor would have synergistic activity with inhibitors of Hsp90 and the proteasome, MDA-MB-231 cells were treated for 24 hrs with combinations of an HSP70 inhibitor and an HSP90 inhibitor and measured cell viability by MTT assays. […] JG98 was also synergistic at ratios of JG98:17DMAG of 1:1 and at ratios of JG98:bortezomib at 100:1.

MCF7 cells = test: Combination therapy Hsp70 and Hsp90, MCF7 growth; type: cell-based; conditions: with 1 nM rapamycin or 1 nM 17-AAG
Experimental: The cells were then treated with the Hsp70 inhibitor JG-83 or JG-84 alone or in combination with the Hsp90 inhibitor 1 nM rapamycin or 1 nM 17-AAG.

[2] = system: human 4R0N tau in HeLaC3 cells; test: Tau levels in HeLaC3 cells by Western blot; type: cell-based
Experimental: To determine whether YM-08 might also accelerated tau degradation, HeLaC3 cells, which stably over-express human 4R0N tau, were treated with compound. After 24 hours, the levels of phosphorylated (p396/404) tau and total tau were measured by Western blot. […] This cellular activity is not as dramatic as that of MKT-077, which reduced tau levels by >80% at 30 μM (FIG. 4D); however, reducing tau by only about 50% is predicted to provide benefits in some AD models.

[3] = system: MCF-7, MCF-10A and MB-MDA-231 cells; test: MTT assays, three cell lines; type: cell-based; conditions: range over MCF-7, MCF-10A and MB-MDA-231 cells
Experimental: YM-08 was tested whether it might retain the anti-cancer activity of MKT-077.

[4] = Phase I, anti-cancer agent; cited from earlier work
[5] = in vivo; cited from earlier work
MCF-7 = test: Cancer activity screen (MTT cell survival), MCF-7; type: cell-based; conditions: especially in MCF7 cells
[6] = Liver microsome stability; type: in vitro ADME; conditions: human liver microsomes
[7] = Initial pharmacokinetics and biodistribution in CD1 mice; type: in vivo, mouse; conditions: i.v., YM-01 20 mg/kg saline, YM-08 10 mg/kg 10% DMSO/saline
Experimental: (A) Initial pharmacokinetics and biodistribution of YM-01 and YM-08. Compounds were suspended in buffered saline (YM-01) or 10% DMSO/saline (YM-08) and injected at 20 and 10 mg/kg, respectively. YM-08 was not soluble in saline or 10% DMSO/saline at 20 mg/kg. The levels of YM-08 in the brain at 1 hr after injection could not be accurately determined because its value was outside the calibration curve. […] Results are average from data acquired from three female mice. (C) YM-08 maintains a B/P ratio of nearly 0.25 for 18 hrs.
The initial pharmacokinetics (PK) of YM-01 and YM-08 were tested in CD1 mice. […] After a single 6.6 mg/kg dose delivered i.v., the peak brain concentration of YM-08 was 4 μg/g (FIG. 7B) and the ratio in the brain:plasma (B/P) ratio was approximately 0.25 for 18 hrs (FIG. 7C). […] It is not yet clear how much tau levels need to be reduced to achieve therapeutic effects in disease models, but the area-under-the-curve (AUCinf) for YM-08 in the brain was 0.26 μg·hr/g and the AUCinf in plasma was 13.6 μg·hr/mL.

[8] = read-out: IC50, inhibition of biotinylated MKT-077 binding to immobilized Hsc70, competitive ELISA, biotin labeled MKT-077 1 μM
[9] = competitive ELISA, biotin labeled MKT-077 1 μM

T1 sequence (P11142 whole entry): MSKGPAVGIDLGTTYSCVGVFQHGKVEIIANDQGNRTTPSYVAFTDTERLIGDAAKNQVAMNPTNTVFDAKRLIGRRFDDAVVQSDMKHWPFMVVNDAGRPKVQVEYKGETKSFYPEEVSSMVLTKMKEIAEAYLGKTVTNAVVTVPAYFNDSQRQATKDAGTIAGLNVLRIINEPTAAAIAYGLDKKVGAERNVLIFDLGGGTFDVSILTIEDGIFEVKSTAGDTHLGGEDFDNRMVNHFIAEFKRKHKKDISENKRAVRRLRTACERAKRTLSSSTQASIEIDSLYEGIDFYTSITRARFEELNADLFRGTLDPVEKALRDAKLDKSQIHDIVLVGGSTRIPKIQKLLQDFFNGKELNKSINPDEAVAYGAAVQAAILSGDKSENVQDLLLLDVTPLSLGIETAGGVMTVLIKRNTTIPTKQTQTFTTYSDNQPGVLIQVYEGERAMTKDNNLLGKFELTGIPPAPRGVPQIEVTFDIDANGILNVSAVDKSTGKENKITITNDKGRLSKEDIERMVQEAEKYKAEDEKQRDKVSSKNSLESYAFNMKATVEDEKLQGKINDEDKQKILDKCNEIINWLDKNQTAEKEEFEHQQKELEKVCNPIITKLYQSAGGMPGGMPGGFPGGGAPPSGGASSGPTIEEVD
Chain of prokaryotic Hsp70 (DnaK) binding to denatured luciferase (P0A6Y8 whole entry): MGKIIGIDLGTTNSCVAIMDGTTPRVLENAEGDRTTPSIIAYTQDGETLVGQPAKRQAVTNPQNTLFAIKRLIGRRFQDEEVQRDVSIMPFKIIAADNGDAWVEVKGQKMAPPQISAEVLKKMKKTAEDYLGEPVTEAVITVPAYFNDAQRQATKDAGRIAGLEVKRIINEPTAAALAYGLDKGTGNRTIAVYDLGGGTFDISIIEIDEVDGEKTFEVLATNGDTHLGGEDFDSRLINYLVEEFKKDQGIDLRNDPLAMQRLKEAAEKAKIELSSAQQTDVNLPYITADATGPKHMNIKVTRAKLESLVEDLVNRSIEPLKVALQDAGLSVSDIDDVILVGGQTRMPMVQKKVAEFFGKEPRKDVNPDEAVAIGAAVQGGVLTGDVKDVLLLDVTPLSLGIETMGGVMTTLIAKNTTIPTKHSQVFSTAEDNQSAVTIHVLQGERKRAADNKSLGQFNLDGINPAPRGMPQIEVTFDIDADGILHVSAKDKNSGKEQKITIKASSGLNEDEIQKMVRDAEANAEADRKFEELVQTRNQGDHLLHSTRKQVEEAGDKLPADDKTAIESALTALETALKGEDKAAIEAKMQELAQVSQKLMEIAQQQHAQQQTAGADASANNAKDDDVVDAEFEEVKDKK

(E)-3-ethyl-5-(3-methylbenzo[d]thiazol-2(3H)-ylidene)-2-(methylthio)-4-oxo-4,5-dihydrothiazol-3-ium [YM-03]
activity in luciferase binding assay [1]: reduced activity

(Z)-2-((3-ethyl-4-oxothiazolidin-2-ylidene)methyl)-1-methylpyridin-1-ium [YM-04]
affinity fold worse than YM-07 (human Hsc70 (HSPA8); ratio of ELISA IC50): about 2 fold | IC50 (human Hsc70 (HSPA8); [8]): ~15 µM | activity in luciferase binding assay [1]: reduced activity

CCn1c(=O)/c(=C2\Sc3cc(Cl)ccc3N2C)s/c1=C\c1scc[n+]1Cc1ccccc1.[Cl-] [JG-98]
synergy (MDA-MB-231 cells; JG98:17DMAG 1:1): synergistic | combination index CI50 (MDA-MB-231 cells; JG98:17DMAG (10:1)): 1.09 | combination index CI75 (MDA-MB-231 cells; JG98:17DMAG (10:1)): 0.35 | combination index CI90 (MDA-MB-231 cells; JG98:17DMAG (10:1)): 0.27 | combination index CI95 (MDA-MB-231 cells; JG98:17DMAG (10:1)): 0.2 | synergy (MDA-MB-231 cells; JG98:bortezomib 100:1): synergistic | combination index CI50 (MDA-MB-231 cells; JG98:bortezomib (1:1)): 0.05 | combination index CI75 (MDA-MB-231 cells; JG98:bortezomib (1:1)): 0.05 | combination index CI90 (MDA-MB-231 cells; JG98:bortezomib (1:1)): < 0.02 | combination index CI95 (MDA-MB-231 cells; JG98:bortezomib (1:1)): < 0.02

CCn1c(=O)/c(=C2\Sc3cccc(F)c3N2C)s/c1=C\c1scc[n+]1Cc1ccccc1 [JG-83]
IC50 in combination versus Hsp70 inhibitor alone (MCF7 cells): decreased IC50 concentrations

CCn1c(=O)/c(=C2\Sc3cccc(Cl)c3N2C)s/c1=C\c1scc[n+]1Cc1ccccc1 [JG-84]
IC50 in combination versus Hsp70 inhibitor alone (MCF7 cells): decreased IC50 concentrations

CCn1c(=O)/c(=C2\Sc3ccccc3N2C)s/c1=C\c1cccc[n+]1CC [MKT-077, 1-ethyl-2-((Z)-((E)-3-ethyl-5-(3-methylbenzo[d]thiazol-2(3H)-ylidene)-4-oxothiazolidin-2-ylidene)methyl)pyridin-1-ium]
IC50 (human Hsc70 (HSPA8)): 6.4 ± 0.23 µM | enhancement of DnaK binding to denatured luciferase [1]: about 30% | reduction of tau levels ([2]; 30 μM): > 80% | EC50 [3]: 1.4 to 3 µM | clinical toxicity [4]: nephrotoxicity in a subset of patients | BBB crossing [5]: does not cross the BBB | kidney accumulation [5]: dramatic accumulation of MKT-077 in the kidney

CCN1C(=O)CS/C1=C\c1ccccn1 [YM-07, (Z)-3-ethyl-2-(pyridin-2-ylmethylene)thiazolidin-4-one]
IC50 (human Hsc70 (HSPA8); [9]): ~5.8 µM | affinity fold worse than YM-08 (human Hsc70 (HSPA8); ratio of ELISA IC50): about 10 fold | activity in luciferase binding assay [1]: reduced activity | anti-cancer activity (MCF-7): residual activity

CCn1c(=O)/c(=C2\Sc3ccccc3N2C)s/c1=C\c1cccc[n+]1C [YM-01, 2-((Z)-((E)-3-ethyl-5-(3-methylbenzo[d]thiazol-2(3H)-ylidene)-4-oxothiazolidin-2-ylidene)methyl)-1-methylpyridin-1-ium]
IC50 (human Hsc70 (HSPA8); [8]): 3.2 ± 0.23 µM | enhancement of DnaK binding to denatured luciferase [1]: about 30% | t1/2 [6]: approximately 4 minutes | kidney distribution ([7]; 0.16 and 1 hrs): prevalent in the kidney | brain penetration ([7]; 0.16 hrs): lacked detectable brain penetration

CCN1C(=O)/C(=C2\Sc3ccccc3N2C)SC1=S [YM-02, (E)-3-ethyl-5-(3-methylbenzo[d]thiazol-2(3H)-ylidene)-2-thioxothiazolidin-4-one]
IC50 (human Hsc70 (HSPA8); [9]): > 50 µM | activity in luciferase binding assay [1]: reduced activity; also recorded: some residual activity | anti-tau activity in cells [2]: some residual activity | anti-cancer activity (MCF-7): residual activity
